Assay results taken from US8772199B2, “Herbicidal compositions for tolerant or resistant maize crops” (Bayer Intellectual Property GmbH, priority 1998, dated 2014).
Structures can show the parent of a compound that is named as a salt.

Legend:
Test in all cases: Field trial with maize, herbicidal action
Assay type in all cases: in vivo
Convolvulus arvensis = conditions: application 3- to 4-leaf stage, scoring 28 days after application
Protocol: (§1) Transgenic maize plants with a resistance to one or more herbicides (A) together with typical weed plants were grown in the open on 2×5 m plots under natural field conditions; alternatively, weed infestation occurred naturally when the maize plants were grown.
(§2) 2, 4, 6 and 8 weeks after the application, the herbicidal activity of the active substances or active substance mixtures was scored visually with reference to the treated plots in comparison to untreated control plots. The damage to, and the development of, all aerial parts of the plants was recorded. Scoring was done on the basis of a percentage sale (100% action=all plants destroyed; 50% action=50% of the plants and green parts of the plants destroyed; 0% action=no recognizable effect=like control plot. The mean of the score values of in each case 4 plots was calculated.

Sorghum halepense = conditions: application 4-leaf stage, scoring 28 days after application
Protocol: as §1, §2

Sinapis arvensis = conditions: application 4- to 5-leaf stage, scoring 28 days after application
Protocol: as §1, §2

CP(=O)(O)CCC(N)C(=O)O (stereo not drawn) [(A1.2), glufosinate-monoammonium salt]
Herbicidal action (%) against Convolvulus arvensis (Convolvulus arvensis; 200 g of a.s./ha): 0% | Herbicidal action (%) against Convolvulus arvensis (Convolvulus arvensis; 400 g of a.s./ha): 20% | Herbicidal action (%) against Sorghum halepense (Sorghum halepense; 300 g of a.s./ha): 15% | Herbicidal action (%) against Sorghum halepense (Sorghum halepense; 500 g of a.s./ha): 53% | Herbicidal action (%) against Sinapis arvensis (Sinapis arvensis; 230 g of a.s./ha): 45% | Herbicidal action (%) against Sinapis arvensis (Sinapis arvensis; 350 g of a.s./ha): 75%
